Data as given in US7608577B2, “Peptidyl ketones as inhibitors of DPIV” (OSI Pharmaceuticals, Inc., priority 2001, dated 2009).

Tests used:
[1] = target: T1, Angiotensin-I converting enzyme (ACE) (Oryctolagus cuniculus, UniProt P12822); test: Cross reacting enzymes: ACE; format: biochemical; conditions: Sigma enzyme A-6778
T1 construct: purchased Sigma A-6778
T1 sequence (P12822 34-1310): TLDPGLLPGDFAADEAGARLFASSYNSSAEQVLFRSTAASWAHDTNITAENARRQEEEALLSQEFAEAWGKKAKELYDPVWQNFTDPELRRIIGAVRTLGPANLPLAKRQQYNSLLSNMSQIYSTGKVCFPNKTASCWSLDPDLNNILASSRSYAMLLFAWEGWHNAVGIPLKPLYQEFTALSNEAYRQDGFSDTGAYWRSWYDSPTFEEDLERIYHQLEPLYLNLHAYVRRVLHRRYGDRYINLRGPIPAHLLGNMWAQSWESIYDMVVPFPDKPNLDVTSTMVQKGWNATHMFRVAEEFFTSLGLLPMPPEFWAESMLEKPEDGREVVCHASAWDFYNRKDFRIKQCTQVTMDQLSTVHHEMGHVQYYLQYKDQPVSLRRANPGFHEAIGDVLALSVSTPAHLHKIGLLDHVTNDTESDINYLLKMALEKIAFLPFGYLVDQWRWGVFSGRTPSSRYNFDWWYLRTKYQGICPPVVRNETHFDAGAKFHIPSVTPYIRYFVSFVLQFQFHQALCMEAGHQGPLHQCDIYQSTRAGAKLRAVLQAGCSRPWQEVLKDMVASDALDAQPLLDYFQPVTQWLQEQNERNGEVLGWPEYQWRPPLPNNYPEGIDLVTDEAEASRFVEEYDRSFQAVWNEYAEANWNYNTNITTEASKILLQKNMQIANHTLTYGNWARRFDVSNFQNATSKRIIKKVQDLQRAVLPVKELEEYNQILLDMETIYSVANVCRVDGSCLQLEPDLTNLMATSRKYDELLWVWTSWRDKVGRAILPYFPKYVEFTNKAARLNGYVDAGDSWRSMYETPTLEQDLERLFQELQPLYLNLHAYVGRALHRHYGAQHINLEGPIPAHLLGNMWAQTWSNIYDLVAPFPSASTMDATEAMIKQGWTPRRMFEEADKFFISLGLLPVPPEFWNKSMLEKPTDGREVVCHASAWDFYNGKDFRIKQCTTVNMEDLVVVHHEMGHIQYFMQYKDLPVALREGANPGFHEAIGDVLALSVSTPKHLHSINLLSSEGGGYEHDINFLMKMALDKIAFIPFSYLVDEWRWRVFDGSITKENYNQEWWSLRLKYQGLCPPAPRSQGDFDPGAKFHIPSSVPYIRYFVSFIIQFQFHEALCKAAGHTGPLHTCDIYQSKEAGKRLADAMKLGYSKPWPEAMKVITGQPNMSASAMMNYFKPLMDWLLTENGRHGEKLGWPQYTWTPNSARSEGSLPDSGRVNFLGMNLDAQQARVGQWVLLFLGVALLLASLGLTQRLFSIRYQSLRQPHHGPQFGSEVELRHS
Protocol: For IC50 determination of ACE an enzyme produced by Sigma was used (Prod. No. A-6778). The assay procedure and calculation of activity described by the manufacturer was adapted to half of the described volumes.
The IC50-values were calculated using Graphit 4.0.15 (Erithacus Software, Ltd., UK).

diabetic Zucker rats = test: Glucose tolerance (OGTT) in diabetic Zucker rats; format: in vivo, Zucker rats (fa/fa); conditions: for Improvement: vs AUC control
Protocol: N=30 male Zucker rats (fa/fa), mean age 11 weeks (5-12 weeks), mean body weight 350 g (150-400 g), were purchased from Charles River (Sulzfeld, Germany). They were kept for >12 weeks until all the fatty Zucker rats had the characteristics of manifest Diabetes mellitus.
Animals were kept single-housed under conventional conditions with controlled temperature (22±2° C.) on a 12/12 hours light/dark cycle (light on at 06:00 a.m.). Standard pellets (ssniff®, Soest, Germany) and tap water acidified with HCl were allowed ad libitum.
Fatty Zucker rats, 17-24 weeks old, adapted to the housing conditions, were well prepared for the tests. Catheters were implanted into the carotid artery of fatty Zucker rats under general anaesthesia (i.p. injection of 0.25 ml/kg b.w. Rompun® [2%], BayerVital, Germany and 0.5 ml/kg b.w. Ketamin 10, Atarost GmbH & Co., Twistringen, Germany). The animals were allowed to recover for one week. The catheters were flushed with heparin-saline (100 IU/ml) three times per week. In case of catheter dysfunction, a second catheter was inserted into the contra-lateral carotid artery of the respective rat. After one week of recovery from surgery, this animal was reintegrated into the study. In case of dysfunction of the second catheter, the animal was withdrawn from the study. A new animal was recruited and the experiments were continued in the planned sequence, beginning at least 7 days after catheter implantation.
Fatty Zucker rats with intact catheter function were given in random order placebo (1 ml saline, 0.154 mol/l; N=9 animals as control), or test substance, solved in 1 ml saline (N=6 animals in each test group).
After overnight fasting, the fatty Zucker rats were given placebo and test substance, respectively, via feeding tube orally (15 G, 75 mm; Fine Science Tools, Heidelberg, Germany) at −10 min. An oral glucose tolerance test (OGTT) with 2 g/kg b.w. glucose as a 40% solution (B. Braun Melsungen, Melsungen, Germany) was implemented at ±0 min. The glucose was administered via a second feeding tube. Arterial blood samples from the carotid catheter were collected at −30 min, −15 min, ±0 min and at 5, 10, 15, 20, 30, 40, 60, 90 and 120 min into 20 μl glass capillaries, which were placed in standard tubes filled with 1 ml solution for hemolysis (blood glucose measurement). […]
Blood glucose: Glucose levels were measured using the glucose oxidase procedure (Super G Glukosemeβgerät; Dr. Müller Gerätebau, Freital, Germany).

## Br.CC(=O)OCC(=O)[C@@H]1CCCN1C(=O)[C@@H](NC(=O)[C@H](C)N)C(C)C [H-Ala-Val-Pro-CH2O—CO—CH3*HBr, 2-[(Acetyloxy-methyl)carbonyl]-1-N-[(L)-Alanyl-(L)-Valinyl]-(2S)-pyrrolidine hydrobromide]
[1]
  ACE IC50: no inhibition
Diabetic Zucker rats; OGTT, 5 mg/kg b.w. oral
  AUC test compound: 309.1 mmol·min/L
  Improvement: 44.9%
Diabetic Zucker rats; OGTT, 15 mg/kg b.w. oral
  AUC test compound: 300.9 mmol·min/L
  Improvement: 46.4%
Diabetic Zucker rats; OGTT, 50 mg/kg b.w. oral
  AUC test compound: 254.7 mmol·min/L
  Improvement: 54.6%

## Br.CC(C)[C@H](NC(=O)[C@H](C)N)C(=O)N1CCC[C@H]1C(=O)COC(=O)c1ccccc1 [H-Ala-Val-Pro-CO—CH2O—CO—Ph*HBr, 2-[(Benzoyloxy-methyl)carbonyl]-1-N-[{(L)-Alanyl}-(L)-Valinyl]-(2S)-pyrrolidine hydrobromide]
[1]
  ACE IC50: no inhibition
Diabetic Zucker rats; OGTT, 5 mg/kg b.w. oral
  AUC test compound: 209.1 mmol·min/L
  Improvement: 59.5%
Diabetic Zucker rats; OGTT, 15 mg/kg b.w. oral
  AUC test compound: 245.4 mmol·min/L
  Improvement: 52.6%
Diabetic Zucker rats; OGTT, 50 mg/kg b.w. oral
  AUC test compound: 160.5 mmol·min/L
  Improvement: 69.0%

## Br.CC(=O)[C@@H]1CCCN1C(=O)[C@@H](NC(=O)[C@H](C)N)C(C)C [H-Ala-Val-Pro-Me*HBr, 2-Methylcarbonyl-1-N-[(L)-Alanyl-(L)-Valinyl]-(2S)-pyrrolidine hydrobromide]
[1]
  ACE IC50: no inhibition
Diabetic Zucker rats; OGTT 2 g/kg glucose, 100 mg/kg b.w. oral
  AUC test compound: 394.4 mmol·min/L
Diabetic Zucker rats; OGTT, 100 mg/kg b.w. oral
  Improvement: 48.5%
